Counter-ions that a name gives are not always drawn.
Key:
5HT-Transporter = molecular target: T1, 5HT-Transporter (Homo sapiens, UniProt P31645); experiment: Binding experiment for the 5HT-transporter ([3H]paroxetine, human platelet membranes); settings: [3H]paroxetine 0.5 nM; for IC50: read-out: h-5HTT pIC50 (converted)
T1 construct: Human platelet membranes (Oceanix Biosciences Corporation, Hanover, Md., USA) were thawed; tissue Oceanix Biosciences Corporation, Hanover, Md., USA; host or cells: human platelet membranes
Method in brief: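 Filter-bound radioactivity from human platelet membranes incubated with [3H]paroxetine and test compound (buffer Tris-HCl 50 mM, 120 mM NaCl, 5 mM KCl) was counted.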

hα2C receptor = molecular target: T2, hα2C receptor (Homo sapiens, UniProt P18825); experiment: Radioligand binding experiment for α2C-adrenoceptor ([3H]raulwolscine, CHO cell membranes); settings: [3H]raulwolscine binding; for IC50: read-out: h-α2C pIC50 (converted)
T2 construct: expressed in transfected cells; host or cells: CHO cells, stably transfected; membrane preparation
T2 sequence (P18825 1-462): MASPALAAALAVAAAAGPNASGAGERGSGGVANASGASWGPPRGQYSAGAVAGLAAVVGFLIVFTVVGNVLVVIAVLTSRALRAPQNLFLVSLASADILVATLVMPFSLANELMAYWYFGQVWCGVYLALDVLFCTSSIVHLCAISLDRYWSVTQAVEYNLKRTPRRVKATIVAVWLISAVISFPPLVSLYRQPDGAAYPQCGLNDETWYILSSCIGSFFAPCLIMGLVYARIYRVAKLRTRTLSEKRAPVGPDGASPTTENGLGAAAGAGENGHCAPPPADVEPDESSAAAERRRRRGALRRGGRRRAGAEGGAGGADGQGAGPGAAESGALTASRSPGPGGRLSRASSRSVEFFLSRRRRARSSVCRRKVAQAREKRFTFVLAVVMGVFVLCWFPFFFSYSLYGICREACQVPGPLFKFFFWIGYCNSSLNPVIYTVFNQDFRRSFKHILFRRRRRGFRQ

hα2A receptor = molecular target: T3, hα2A receptor (Homo sapiens, UniProt P08913); experiment: Radioligand binding experiment for α2A-adrenoceptor ([3H]raulwolscine, CHO cell membranes); settings: [3H]raulwolscine binding; for IC50: read-out: h-α2A pIC50 (converted)
T3 construct: expressed in transfected cells; host or cells: CHO cells, stably transfected; membrane preparation
T3 sequence (P08913 1-465): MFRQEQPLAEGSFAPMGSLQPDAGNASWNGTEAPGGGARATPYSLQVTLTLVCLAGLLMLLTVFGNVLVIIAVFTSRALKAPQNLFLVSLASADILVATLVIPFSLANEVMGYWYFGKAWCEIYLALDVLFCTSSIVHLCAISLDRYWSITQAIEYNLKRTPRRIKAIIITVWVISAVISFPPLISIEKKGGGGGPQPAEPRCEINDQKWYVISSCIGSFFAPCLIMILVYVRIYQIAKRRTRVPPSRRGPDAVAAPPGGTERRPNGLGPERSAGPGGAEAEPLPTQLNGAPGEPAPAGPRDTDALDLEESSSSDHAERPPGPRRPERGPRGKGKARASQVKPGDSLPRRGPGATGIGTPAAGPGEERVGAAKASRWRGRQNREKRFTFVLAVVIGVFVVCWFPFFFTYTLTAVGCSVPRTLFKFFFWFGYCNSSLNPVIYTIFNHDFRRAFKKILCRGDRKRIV

T1 sequence (P31645 whole entry): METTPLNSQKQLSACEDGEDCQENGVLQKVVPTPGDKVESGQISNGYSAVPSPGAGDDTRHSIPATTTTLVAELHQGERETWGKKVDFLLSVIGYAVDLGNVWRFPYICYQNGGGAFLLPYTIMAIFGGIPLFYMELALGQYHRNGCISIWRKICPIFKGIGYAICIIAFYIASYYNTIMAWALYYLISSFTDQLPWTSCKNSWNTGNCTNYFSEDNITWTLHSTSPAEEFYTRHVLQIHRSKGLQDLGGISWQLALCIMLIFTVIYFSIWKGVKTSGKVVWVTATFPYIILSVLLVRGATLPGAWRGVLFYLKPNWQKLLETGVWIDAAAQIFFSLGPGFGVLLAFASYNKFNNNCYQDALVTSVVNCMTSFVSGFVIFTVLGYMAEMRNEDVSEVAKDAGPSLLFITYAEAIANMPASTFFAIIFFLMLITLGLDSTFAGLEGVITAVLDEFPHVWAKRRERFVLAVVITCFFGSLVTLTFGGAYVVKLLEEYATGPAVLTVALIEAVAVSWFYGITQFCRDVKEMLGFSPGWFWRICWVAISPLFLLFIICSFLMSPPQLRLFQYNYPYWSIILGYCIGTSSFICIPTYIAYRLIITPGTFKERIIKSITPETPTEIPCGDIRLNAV

Structure (SMILES) | melting point [°C] | IC50 (5HT-Transporter) [nM] | IC50 (hα2C receptor) [nM] | IC50 (hα2A receptor) [nM] | h-5HTT pIC50 (5HT-Transporter) | h-α2C pIC50 (hα2C receptor) | h-α2A pIC50 (hα2A receptor)
C/C(=C\c1ccccc1)CN1CCC(Nc2nccn(Cc3ccc(CNC(=O)c4ccco4)cc3)c2=O)CC1 [1-152] | 103 | 501 | 31.6 | 126 |  |  | 
C/C(=C\c1ccccc1)CN1CCC(Nc2nccn(CCCNCc3ccccc3)c2=O)CC1 (as salt: HCl) [1-47] | 270 |  |  |  |  |  | 
C/C(=C\c1ccccc1)CN1CCC(Nc2nccn(CCCN(C)C)c2=O)CC1 [1-14] | 254 | 6310 |  | 63.1 |  |  | 
C/C(=C\c1ccccc1)CN1CCC(Nc2nccn(Cc3ccc(CN)cc3)c2=O)CC1 (as salt: HCl) [1-7] | 231 |  |  |  |  |  | 
C/C(=C\c1ccccc1)CN1CCC(Nc2nccn(-c3cccc(CN(C)CCN(C)C)c3)c2=O)CC1 [1-109] |  |  |  |  | 6.5 | 8.6 | 8.2
COc1ccc(CNC(=O)Cn2ccnc(NC3CCN(C/C(C)=C/c4ccccc4)CC3)c2=O)cc1 [1-64] |  | 1580 | 12.6 | 251 |  |  | 
COC(=O)CCNCc1ccc(-n2ccnc(NC3CCN(C/C(C)=C/c4ccccc4)CC3)c2=O)cc1 [1-96] |  |  |  |  | 6.0 | 8.6 | 7.1
C/C(=C\c1ccccc1)CN1CCC(Nc2nccn(Cc3ccc(CNC(=O)C4CCCCC4)cc3)c2=O)CC1 [1-36] |  | 398 | 39.8 | 158 |  |  | 
COCCN(C)Cc1ccc(-n2ccnc(NC3CCN(C/C(C)=C/c4ccccc4)CC3)c2=O)cc1 [1-26] |  |  |  |  | 5.8 | 8.7 | 7.2
COc1ccc(NC(=O)Cn2ccnc(NC3CCN(C/C(C)=C/c4ccccc4)CC3)c2=O)cc1 [1-63] |  | 631 | 12.6 | 100 |  |  | 
CCCC(=O)NCc1ccc(Cn2ccnc(NC3CCN(C/C(C)=C/c4ccccc4)CC3)c2=O)cc1 [1-31] |  | 794 | 50.1 | 200 |  |  | 

The next lines start with the values.

melting point [°C] | IC50 (5HT-Transporter) [nM] | IC50 (hα2C receptor) [nM] | IC50 (hα2A receptor) [nM] | h-5HTT pIC50 (5HT-Transporter) | h-α2C pIC50 (hα2C receptor) | h-α2A pIC50 (hα2A receptor) | Structure (SMILES)
170 | 5010 | 6.31 | 126 |  |  |  | C/C(=C\c1ccccc1)CN1CCC(Nc2nccn(CC(=O)N3CCCCC3)c2=O)CC1 [2-5]
112 | 398 | 15.8 | 158 |  |  |  | C/C(=C\c1ccccc1)CN1CCC(Nc2nccn(Cc3ccccc3CS(=O)(=O)c3ccccc3)c2=O)CC1 [4-3]
67 |  |  |  |  |  |  | C/C(=C\c1ccccc1)CN1CCC(Nc2nccn(CC#CCN3C(=O)c4ccccc4C3=O)c2=O)CC1 (as salt: trifluoroacetate) [2-54]
 | 158 | 31.6 | 126 |  |  |  | C/C(=C\c1ccccc1)CN1CCC(Nc2nccn(CCOc3ccccc3)c2=O)CC1 [3-18]
 | > 10000 | 63.1 | 398 |  |  |  | C/C(=C\c1ccccc1)CN1CCN(c2nccn(CC(=O)C(C)(C)C)c2=O)CC1 [14-4]
 | 1260 | 79.4 | 398 |  |  |  | C/C(=C\c1ccccc1)CN1CCN(c2nccn(CCOCc3ccccc3)c2=O)CC1 [10-3]
 | > 10000 | 316 | 2510 |  |  |  | CN(C)C(=O)Cn1ccnc(NC2CCN(C/C=C/c3ccccc3)CC2)c1=O [16-3]
 | 6310 | 31.6 | 398 |  |  |  | CCOC(=O)N1CCN(Cc2ccc(-n3ccnc(NC4CCN(C/C(C)=C/c5ccccc5)CC4)c3=O)cc2)CC1 [2-37]
 | 3980 | 15.8 | 100 |  |  |  | C/C(=C\c1ccccc1)CN1CCC(Nc2nccn(CC(=O)OCc3ccccc3)c2=O)CC1 [3-20]
 | 398 | 12.6 | 39.8 |  |  |  | CCc1ccc(-n2ccnc(NC3CCN(C/C(C)=C/c4ccccc4)CC3)c2=O)cc1 [5-4]
294 |  |  |  |  |  |  | C/C(=C\c1ccccc1)CN1CCC(Nc2nccn(CCN3CCCCC3)c2=O)CC1 (as salt: HCl) [2-4]
 | 2510 | 3.16 | 63.1 |  |  |  | C/C(=C\c1ccccc1)CN1CCC(Nc2nccn(CC(=O)N3CCN(C)CC3)c2=O)CC1 [2-20]
